Patent publication US6297282A, “Substituted derivatives of benzosulphonamides as inhibitors of the enzyme cyclooxygenase II” (Nycomed Austria GmbH, priority 1997, dated 2001)

How the values were obtained:
[1] = molecular target: T1, cyclooxygenase-II (human COX-2) (Homo sapiens, UniProt P35354); assay: Human COX-2 Test (LPS-stimulated human monocytoid cell line, arachidonic acid, ELISA of cyclooxygenase products); format: cell-based; conditions: for IC50: LPS-stimulated human monocytoid cell line, half an hour incubation, then arachidonic acid 15 minutes, 37° C.; for COX I/COX II (selectivity): ratio of COX I IC50 to COX II IC50
T1 construct: endogenous in cells
T1 sequence (P35354 18-604): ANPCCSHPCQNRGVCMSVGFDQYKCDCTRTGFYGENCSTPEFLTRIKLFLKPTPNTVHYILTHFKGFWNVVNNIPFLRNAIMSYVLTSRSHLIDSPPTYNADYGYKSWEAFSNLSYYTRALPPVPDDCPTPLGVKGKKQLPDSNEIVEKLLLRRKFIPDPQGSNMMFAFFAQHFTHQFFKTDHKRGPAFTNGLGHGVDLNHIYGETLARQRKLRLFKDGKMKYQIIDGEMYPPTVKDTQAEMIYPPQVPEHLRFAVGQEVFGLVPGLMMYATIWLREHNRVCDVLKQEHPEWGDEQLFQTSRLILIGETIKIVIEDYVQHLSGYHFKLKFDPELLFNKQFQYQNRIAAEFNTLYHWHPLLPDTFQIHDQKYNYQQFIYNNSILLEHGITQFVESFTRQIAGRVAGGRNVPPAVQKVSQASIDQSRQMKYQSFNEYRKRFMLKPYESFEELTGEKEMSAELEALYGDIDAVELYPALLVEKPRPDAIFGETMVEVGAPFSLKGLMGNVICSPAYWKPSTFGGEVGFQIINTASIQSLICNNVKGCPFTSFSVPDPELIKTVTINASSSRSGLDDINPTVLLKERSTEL
Procedure: Cells of a human monocytoid cell line were stimulated with lipopolysaccharide (LPS) (incubator at 37° C., 5% CO2 -enriched atmosphere and almost 100% atmospheric humidity), in order to induce COX-2. Following this, the culture medium (RPMI 1640, enriched with 10% FCS, 2 mM glutamine, 10000 U/ml penicillin, […] and 1 mM pyruvate) is refreshed and potential inhibitor substances of cyclooxygenase-II, dissolved in culture medium or in phosphate-buffered saline or in some other solvent compatible with cell cultures, are added and then incubated for half an hour as described above. Arachidonic acid is added by pipette and incubation is carried out for a further 15 minutes. The culture supernatant of the cells is removed and its content of products of cyclooxygenase metabolism (e.g. Prostaglandin E2, Prostaglandin F1a, Thromboxane B2) is measured by ELISA.

[2] = molecular target: T2, cyclooxygenase-I (human COX-1) (Homo sapiens, UniProt P23219); assay: Human COX-1 Test (inhibition of arachidonic acid-induced aggregation of washed human thrombocytes); format: cell-based; conditions: arachidonic acid 10 μM final concentration, 37° C., test substance added 2 minutes before
T2 construct: arachidonic acid-induced aggregation of washed human thrombocytes; endogenous in cells; host or cells: washed human thrombocytes (blood platelets)
Procedure: Inhibition of the arachidonic acid-induced aggregation of washed human thrombocytes was used as a test system for an estimation of the inhibition of cyclooxygenase-I. A thrombocyte suspension at 37° C. was added to the test substances 2 minutes before addition of the arachidonic acid (10 μM final concentration) and the aggregation course was recorded via an aggregometer. With the assistance of a concentration-effect curve, the concentration of test substance was determined at which 50% aggregation was measured (IC50).

T2 sequence (P23219 24-599): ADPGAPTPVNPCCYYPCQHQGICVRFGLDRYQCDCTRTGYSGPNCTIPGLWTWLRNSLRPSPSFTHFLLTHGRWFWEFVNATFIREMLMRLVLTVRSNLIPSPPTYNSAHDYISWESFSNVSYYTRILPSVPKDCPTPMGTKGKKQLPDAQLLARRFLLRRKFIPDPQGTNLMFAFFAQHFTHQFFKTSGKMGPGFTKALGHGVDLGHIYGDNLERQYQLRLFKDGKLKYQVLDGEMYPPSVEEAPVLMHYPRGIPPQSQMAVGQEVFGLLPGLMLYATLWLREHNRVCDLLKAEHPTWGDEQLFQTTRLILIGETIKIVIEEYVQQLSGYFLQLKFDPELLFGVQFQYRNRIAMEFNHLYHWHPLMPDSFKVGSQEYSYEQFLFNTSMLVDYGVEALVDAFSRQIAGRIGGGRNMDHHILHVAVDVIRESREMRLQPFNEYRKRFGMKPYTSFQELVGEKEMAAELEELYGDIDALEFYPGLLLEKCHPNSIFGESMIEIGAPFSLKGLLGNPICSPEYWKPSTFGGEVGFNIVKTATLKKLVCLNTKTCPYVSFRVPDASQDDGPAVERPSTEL

Row | IC50 [1] | COX I/COX II (selectivity) [1] | IC50 [2] | SMILES
1 | 0.1 µM | 250 | 25 µM | CS(=O)(=O)Nc1ccc(S(N)(=O)=O)c(Cl)c1Sc1ccc(Cl)cc1Cl [Example 1, 3-(2,4-Dichlorophenylthio)-2-chloro-4-methylsulphonylamino-benzosulphonamide]
2 | 0.1 µM | 200 | 20 µM | C=CS(=O)(=O)Nc1ccc(S(N)(=O)=O)cc1Sc1ccc(Cl)cc1Cl [Example 6, 3-(2,4-dichlorophenylthio)-4-vinylsulphonyl-amino-benzosulphonamide]
